According to PubChem BioAssay AID1918958 (Molecular Pharmacology Branch, DTP, NCI, 2023):

System: NCI-H196 complex spheroid viability
Assay: Anticancer human tumor NCI-H196 cell line growth inhibition [LSD1];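 also: spheroids exposed to agents for 7 days before readout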;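 as to viability, T/C: 100% = DMSO vehicle control viability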
Settings: for IC50: curve of first compound; for viability, T/C: stronger effect = lower value; active = viability on the fitted dose curve at most 10% of control; inactive = the rest
In short: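 Complex spheroids of tumor cells with HUVEC and human MSCs, exposed to iadademstat combined with other agents. Each agent tested in half-log steps from near clinical Cmax (else 10 microM top), DMSO ≤0.25%.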

Nc1ccccc1NC(=O)c1ccc(CNC(=O)OCc2cccnc2)cc1 + NC1CC1c1ccc(-c2cccc(O)c2)cc1
67.7 nM: IC50 (second compound 3.16 µM)
63.6 nM: IC50 (second compound 1 µM)
63 nM: IC50 (second compound 0.316 µM)
57.8 nM: IC50 (second compound 0.1 µM)
inactive: viability, T/C (second compound 0.1 µM, first compound 0.00949 µM) 77.6% | viability, T/C (second compound 0.1 µM, first compound 0.03 µM) 66.3% | viability, T/C (second compound 0.1 µM, first compound 0.0949 µM) 37.7% | viability, T/C (second compound 0.316 µM, first compound 0.00949 µM) 78.8% | viability, T/C (second compound 0.316 µM, first compound 0.03 µM) 65.5% | viability, T/C (second compound 0.316 µM, first compound 0.0949 µM) 42% | viability, T/C (second compound 1 µM, first compound 0.00949 µM) 80.2% | viability, T/C (second compound 1 µM, first compound 0.03 µM) 63.9% | viability, T/C (second compound 1 µM, first compound 0.0949 µM) 43.9% | viability, T/C (second compound 1 µM, first compound 0.3 µM) 8.12% | viability, T/C (second compound 3.16 µM, first compound 0.00949 µM) 79.5% | viability, T/C (second compound 3.16 µM, first compound 0.03 µM) 70.1% | viability, T/C (second compound 3.16 µM, first compound 0.0949 µM) 41.9% | viability, T/C (second compound 10 µM, first compound 0.00949 µM) 82.2% | viability, T/C (second compound 10 µM, first compound 0.03 µM) 70.6% | viability, T/C (second compound 10 µM, first compound 0.0949 µM) 55% | viability, T/C (second compound 10 µM, first compound 0.3 µM) 10.2%
active: viability, T/C (second compound 0.1 µM, first compound 0.3 µM) 5.54% | viability, T/C (second compound 0.1 µM, first compound 0.949 µM) 0.32% | viability, T/C (second compound 0.1 µM, first compound 3 µM) 0.4% | viability, T/C (second compound 0.316 µM, first compound 0.3 µM) 7.37% | viability, T/C (second compound 0.316 µM, first compound 0.949 µM) 0.32% | viability, T/C (second compound 0.316 µM, first compound 3 µM) 0.32% | viability, T/C (second compound 1 µM, first compound 0.949 µM) 1.9% | viability, T/C (second compound 1 µM, first compound 3 µM) 0.59% | viability, T/C (second compound 3.16 µM, first compound 0.3 µM) 7.06% | viability, T/C (second compound 3.16 µM, first compound 0.949 µM) 0.28% | viability, T/C (second compound 3.16 µM, first compound 3 µM) 0.39% | viability, T/C (second compound 10 µM, first compound 0.949 µM) 0.92% | viability, T/C (second compound 10 µM, first compound 3 µM) 0.55%
104 nM: IC50 (second compound 10 µM)
